# Measurements reported in patent US8324161B2, “Leukotriene B4 binding soluble lipocalin receptor from ixodes ricinus” (Universite Libre de Bruxelles, priority 2007, dated 2012).
# B1: LTB4-LIR polypeptide: Leukotriene B4 binding Lipocalin from Ixodes ricinus, amino acid sequence SEQ ID NO: 2, expressed with V5-6×His tag in a baculovirus system (protein, listed as Ixodes ricinus)
# chain: MLRIAVVAALCCFGTGTVSRFQQNATERHYQELNSNLSKYQDAWKSNTENAEYVLAYRTFQDIERTRIRRCVSATLRYKNKKNRTTVHRLRYYNTRDRKWEGHSVLTRFNATPGYTVPNLMLMSSYHNESDEGRLYWTLYSQYGSCNIVRVERNGGCELWVRKGLQDYISSCCWFIYKSYCGNENYQIYNTTYCKRKGPE
# modifications: V5-6×His tag
# Assays:
# LTB4-LIR polypeptide = assay: inhibition by eicosanoids of [3H]LTB4 binding to LTB4-LIR polypeptide; parameters: species or system Ixodes ricinus; conditions: for inhibition of 1 nM [3H]LTB4 binding to LTB4-LIR polypeptide: eicosanoid at a concentration of 10 μM, FIG. 4
# Description: (§1) The polypeptide according to the invention was therefore tested for its ability to bind specifically leukotriene B4. The affinity-purified LTB4-LIR polypeptide was tested in binding assays according to a previously described method (Warlow, R. S., and Bernard, C. C. A. (1987). Solubilization and characterization of moderate and high affinity histamine binding sites on human blood mononuclear cells. Mol. Immunol. 24, 27-37).
# (§2) The inhibition by various eicosanoids of [3H]LTB4 binding to LTB4-LIR polypeptide was also examined. […] Next, various concentrations of LTA4, LTB4, LTC4, LTD4, HETE, HPETE, and LXA4 was tested in the competition with [3H]LTB4 binding to LTB4-LIR polypeptide.
# [1] = saturation binding of [3H]LTB4 to affinity-purified LTB4-LIR polypeptide
# Description: as §1, §2
# neutrophils = assay: transendothelial migration of neutrophils stimulated by LTB4 through Ea.hy926 endothelial cell layer; assay type: cell-based, human; conditions: 2 hours at 37° C.; neutrophils from three volunteers, in triplicate; FIG. 6
# Description: The principal LTB4 function is the chemo-attraction of neutrophils to the sub-endothelial spaces of an inflammation site. One step of this process is the diapedesis of the neutrophils through the endothelial cells layer. The chemo-attractant effect of LTB4-LIR6 was tested by using a model of transendothelial migration of neutrophils.
# Ea.hy926 cells, an endothelial cell line derived from the human umbilical vein, were used. These cells closely resemble HUVEC and maintain several characteristics of differentiated endothelium. The cells were allowed to reach confluence in chamber containing DMEM (Cambrex, Vervier, Belgium), supplemented with 10% Fetal Calf Serum, 2 mM L-Glutamine, 100 U/ml penicillin, 100 μg/ml streptomycin and HAT ([…], 0.4 μM aminopterin, 16 μM thymidine). […]
# In the transendothelial assay, the protocol described by Nohgawa et al. was used (Nohgawa M., Sasada M., Maeda A., Asagoe K., Harakawa N., Takano K., Yamamoto K., Okuma M. Leukotriene B4-activated human endothelial cells promote transendothelial neutrophil migration. J Leuc. Biol, 1997 (62): 203-209). […] After 2 hours at 37° C., the upper chambers were removed and cells in lower chambers were counted. […]
molecule,measurement,setting,value
CCCCC/C=C\C[C@@H](O)/C=C/C=C\C/C=C\CCCC(=O)O [12(R)-HETE],inhibition of 1 nM [3H]LTB4 binding to LTB4-LIR polypeptide,LTB4-LIR polypeptide,significant competitions
CCCCC/C=C\C\C=C/C=C/C=C/[C@@H](SC[C@H](N)C(=O)NCC(=O)O)[C@@H](O)CCCC(=O)O [LTD4],inhibition of 1 nM [3H]LTB4 binding to LTB4-LIR polypeptide,LTB4-LIR polypeptide,significant competitions
"CCCCC/C=C\C[C@@H](O)/C=C/C=C/C=C\[C@@H](O)CCCC(=O)O [LTB4, leukotriene B4]",inhibition of 1 nM [3H]LTB4 binding to LTB4-LIR polypeptide,LTB4-LIR polypeptide,significant competitions
same,competition with [3H]LTB4 binding to LTB4-LIR polypeptide at various concentrations,"LTB4-LIR polypeptide; various concentrations, FIG. 5",dose-dependent inhibition
CCCCC/C=C\C\C=C/C=C/C=C/[C@@H](SC[C@H](N)C(=O)O)[C@@H](O)CCCC(=O)O [LTE4],inhibition of 1 nM [3H]LTB4 binding to LTB4-LIR polypeptide,LTB4-LIR polypeptide,significant competitions
B1,Kd,"[1]; FIG. 3, read-out: Kd value of specific and saturable binding for [3H]LTB4",0.4 nM
same,Kd lower than that for human BLT1 membrane receptor,[1]; compared with literature Kd of human BLT1 (Yokomizo et al. 2001),about 5 fold
same,Kd lower than that for human BLT2 membrane receptor,[1]; compared with literature Kd of human BLT2 (Yokomizo et al. 2001),about 60 fold
same,effect on the transendothelial migration of neutrophils stimulated by LTB4,neutrophils,significant dose-response effect
